In BindingDB's records for doi:10.1016/j.jmb.2006.12.004 (University of Marburg, 2007) one finds IC50 data, which are given here for four compounds.

In general, IC50 refers to the midpoint of a concentration-inhibition curve. A higher IC50 goes with weaker potency.

This test addresses Aldo-keto reductase family 1 member B1 (Homo sapiens, UniProt P15121). The experiment in a line: Enzyme Inhibition Assay. Particulars: pH 6.2; 25 °C. As to the method: The in vitro inhibitory activity of the candidate molecules was determined by recording the decrease of the NADPH absorbance upon enzymatic reduction of […]. The absorbance at 340 nm was monitored with a BMG plate reader. The program GraFit (Version 4.0) was used for fitting the IC50 values.

For the compound `O=C(O)CCCc1nc(-c2ccc(Cl)cc2)no1` [Ligand 8], the IC50 was 17.7 µM. The same measure for `O=C(O)CCCc1nc(-c2ccccn2)no1` [4-[3-(pyridin-2-yl)-1,2,4-oxadiazol-5-yl]butanoic acid]: 12.4 µM; for `O=C(O)CSc1nnc(-c2ccc([N+](=O)[O-])o2)o1` [2-{[5-(5-nitrofuran-2-yl)-1,3,4-oxadiazol-2-yl]sulfanyl}acetic acid]: 4.1 µM. The result for `O=C(O)CCCc1nc(-c2cccc([N+](=O)[O-])c2)[n-][o+]1` [Ligand 1] reads 0.53 µM.
